From the supplement of paper PMC5908809

Legend:
KAI3 (IL-2 2.5 ng/mL) [1] = experiment: percent inhibition of viability; higher = more inhibition; conditions: 72 h
NK-YS (IL-2 2.5 ng/mL) [2] = experiment: as above; conditions: 72 h
[3] = test system: normal primary NK cells, pool 3 (3 donors) (IL-2 2.5 ng/mL); experiment: as above; conditions: 72 h
[4] = test system: normal primary NK cells, pool 1 (3 donors), resting (IL-2 0 ng/mL); experiment: as above; conditions: 72 h
IMC-1 (IL-2 20 ng/mL) [5] = experiment: as above; conditions: 72 h
SNK-6 (IL-2 2.5 ng/mL) [6] = experiment: as above; conditions: 72 h
[7] = test system: normal primary NK cells, pool 2 (3 donors) (IL-2 2.5 ng/mL); experiment: as above; conditions: 72 h
DERL-7 (IL-2 2.5 ng/mL) [8] = experiment: as above; conditions: 72 h
KHYG-1 (IL-2 2.5 ng/mL) [9] = experiment: as above; conditions: 72 h
[10] = test system: normal primary NK cells, pool 1 (3 donors) (IL-2 2.5 ng/mL); experiment: as above; conditions: 72 h
NKL (IL-2 2.5 ng/mL) [11] = experiment: as above; conditions: 72 h
NK-92 (IL-2 2.5 ng/mL) [12] = experiment: as above; conditions: 72 h
YT (IL-2 2.5 ng/mL) [13] = experiment: as above; conditions: 72 h
[14] = test system: normal NK cells expanded with K562-aAPC; experiment: drug sensitivity score (DSS) (DSS units); higher = more sensitive; extreme values may be limits of the assay; conditions: 72 h; IL-2 2.5 ng/mL
Description: (§1)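 Drug sensitivity and resistance testing on K562-aAPC-expanded normal NK cells: 5 concentrations (10-fold steps over a 10,000-fold range), 72 h at 37 °C, viability by CellTiter-Glo normalised to DMSO and benzethonium chloride controls; DSS from the fitted curve.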

KAI3 (IL-2 2.5 ng/mL) [15] = experiment: as above; conditions: 72 h
NK-YS (IL-2 2.5 ng/mL) [16] = experiment: as above; conditions: 72 h
[17] = test system: normal primary NK cells, pool 3 (3 donors) (IL-2 2.5 ng/mL); experiment: as above; conditions: 72 h
[18] = test system: normal primary NK cells, pool 1 (3 donors), resting (IL-2 0 ng/mL); experiment: as above; conditions: 72 h
IMC-1 (IL-2 20 ng/mL) [19] = experiment: as above; conditions: 72 h
SNK-6 (IL-2 2.5 ng/mL) [20] = experiment: as above; conditions: 72 h
[21] = test system: normal primary NK cells, pool 2 (3 donors) (IL-2 2.5 ng/mL); experiment: as above; conditions: 72 h
DERL-7 (IL-2 2.5 ng/mL) [22] = experiment: as above; conditions: 72 h
KHYG-1 (IL-2 2.5 ng/mL) [23] = experiment: as above; conditions: 72 h
[24] = test system: normal primary NK cells, pool 1 (3 donors) (IL-2 2.5 ng/mL); experiment: as above; conditions: 72 h
NKL (IL-2 2.5 ng/mL) [25] = experiment: as above; conditions: 72 h
NK-92 (IL-2 2.5 ng/mL) [26] = experiment: as above; conditions: 72 h
YT (IL-2 2.5 ng/mL) [27] = experiment: as above; conditions: 72 h
[28] = test system: normal NK cells expanded with K562-aAPC; experiment: percent inhibition of viability; higher = more inhibition; conditions: 72 h, IL-2 2.5 ng/mL
Description: as §1

O[C@H]1CC[C@H](Nc2ncc3nc(Nc4c(F)cc(F)cc4F)n([C@H]4CCOC4)c3n2)CC1 [Tanzisertib] (max concentration tested 10000 nM)
percent inhibition of viability [%]
Conditions	1 nM	10 nM	100 nM	1000 nM	10000 nM
DERL-7 (IL-2 2.5 ng/mL) [8]	2.01	0.84	5.01	1.8	18.5
IMC-1 (IL-2 20 ng/mL) [5]	-1.71	-1.33	2.23	-2.89	5.65
KAI3 (IL-2 2.5 ng/mL) [1]	-8.76	-8.77	4.38	-3.26	2.19
KHYG-1 (IL-2 2.5 ng/mL) [9]	0.6	1.16	7.05	3.25	12.8
NK-92 (IL-2 2.5 ng/mL) [12]	-1.51	-5.43	11.5	-0.78	4.63
NK-YS (IL-2 2.5 ng/mL) [2]	-2.74	-2.64	8.64	8.4	27.7
NKL (IL-2 2.5 ng/mL) [11]	-12.2	-7.14	8.81	20.3	40
SNK-6 (IL-2 2.5 ng/mL) [6]	-5.24	-3.37	-1.51	-9.49	-28.9
YT (IL-2 2.5 ng/mL) [13]	1.29	0.43	6.25	4.44	17.9
[3]	-10.2	-3.98	0.77	-8.69	3.78
[4]	-2.07	-5.9	3.76	-27.5	-23.7
[7]	-13.6	-1.21	2.95	-6.75	12.9
[10]	-1.02	-9.12	-4.55	-5.56	12.8
[28]	-0.53	1.03	-5.53	1.96	16.8

Conditions	drug sensitivity score
DERL-7 (IL-2 2.5 ng/mL) [22]	0.7
IMC-1 (IL-2 20 ng/mL) [19]	0
KAI3 (IL-2 2.5 ng/mL) [15]	0
KHYG-1 (IL-2 2.5 ng/mL) [23]	0
NK-92 (IL-2 2.5 ng/mL) [26]	0
NK-YS (IL-2 2.5 ng/mL) [16]	1.7
NKL (IL-2 2.5 ng/mL) [25]	4.27
SNK-6 (IL-2 2.5 ng/mL) [20]	0
YT (IL-2 2.5 ng/mL) [27]	0.43
[14]	0.57
[17]	0
[18]	0
[21]	0.02
[24]	0.03

Cn1nnc2c(C(N)=O)ncn2c1=O [Temozolomide] (max concentration tested 100000 nM)
percent inhibition of viability [%]
Conditions	10 nM	100 nM	1000 nM	10000 nM	100000 nM
DERL-7 (IL-2 2.5 ng/mL) [8]	-3.81	2.52	-0.21	4.75	-1.49
IMC-1 (IL-2 20 ng/mL) [5]	1.34	-6.01	5.36	17.9	74.4
KAI3 (IL-2 2.5 ng/mL) [1]	-11.8	-10.3	-9.47	-11.7	12.9
KHYG-1 (IL-2 2.5 ng/mL) [9]	-3.41	-4.13	0.86	0.71	8.74
NK-92 (IL-2 2.5 ng/mL) [12]	-7.14	-7.33	-5.28	7.55	32.4
NK-YS (IL-2 2.5 ng/mL) [2]	-2.59	-6.14	2.38	3.13	22.3
NKL (IL-2 2.5 ng/mL) [11]	-9.55	-19.8	-10.2	4.85	65.2
SNK-6 (IL-2 2.5 ng/mL) [6]	-0.07	8.23	35.2	72.8	88.5
YT (IL-2 2.5 ng/mL) [13]	-4.31	-3.78	-0.54	-3.29	0.79
[3]	-14.7	-11.8	-7.32	6.58	17.2
[4]	-13.7	-5.7	-14.4	-9.04	-7.4
[7]	-14.2	-9.61	-8.15	11.5	10
[10]	-7.39	2.46	-6.83	-0.09	5.41
[28]	0.11	-2.44	4.25	0.95	10.9

Conditions	drug sensitivity score
DERL-7 (IL-2 2.5 ng/mL) [22]	0
IMC-1 (IL-2 20 ng/mL) [19]	6.93
KAI3 (IL-2 2.5 ng/mL) [15]	0.01
KHYG-1 (IL-2 2.5 ng/mL) [23]	0
NK-92 (IL-2 2.5 ng/mL) [26]	2.63
NK-YS (IL-2 2.5 ng/mL) [16]	1.21
NKL (IL-2 2.5 ng/mL) [25]	4.31
SNK-6 (IL-2 2.5 ng/mL) [20]	18
YT (IL-2 2.5 ng/mL) [27]	0
[14]	0.02
[17]	1.03
[18]	0
[21]	0.32
[24]	0

O=C1CCC(N2C(=O)c3ccccc3C2=O)C(=O)N1 (configuration not stated) [Thalidomide] (max concentration tested 10000 nM)
percent inhibition of viability [%]
Conditions	1 nM	10 nM	100 nM	1000 nM	10000 nM
DERL-7 (IL-2 2.5 ng/mL) [8]	-4.35	1.66	0.7	-4.56	-10.4
IMC-1 (IL-2 20 ng/mL) [5]	-2.34	-2.83	3.91	5.3	12
KAI3 (IL-2 2.5 ng/mL) [1]	-9.63	-11.1	-3.59	-3.95	14.6
KHYG-1 (IL-2 2.5 ng/mL) [9]	-4.12	-6.62	0.67	6.18	10.3
NK-92 (IL-2 2.5 ng/mL) [12]	-15.9	-8.74	-9.71	7.78	12.7
NK-YS (IL-2 2.5 ng/mL) [2]	-5.98	-8.88	-3.38	8.1	15.2
NKL (IL-2 2.5 ng/mL) [11]	-18.5	-7.52	-3.52	13.7	11.1
SNK-6 (IL-2 2.5 ng/mL) [6]	-14.3	8.65	-18.4	-31.5	-27.8
YT (IL-2 2.5 ng/mL) [13]	-9.26	-7.23	-5.25	-0.15	26.5
[3]	-10.6	-12.8	-2.32	1.72	4.5
[4]	6	-5.13	20	-1.84	-5.2
[7]	-7.68	-2.29	0.16	8.57	7.78
[10]	0.86	-2.62	18.8	-1.53	5.13
[28]	-14.8	-5.18	-6.96	6.59	12.7

Conditions	drug sensitivity score
DERL-7 (IL-2 2.5 ng/mL) [22]	0
IMC-1 (IL-2 20 ng/mL) [19]	0.03
KAI3 (IL-2 2.5 ng/mL) [15]	0.11
KHYG-1 (IL-2 2.5 ng/mL) [23]	0.01
NK-92 (IL-2 2.5 ng/mL) [26]	0.43
NK-YS (IL-2 2.5 ng/mL) [16]	0.86
NKL (IL-2 2.5 ng/mL) [25]	0.91
SNK-6 (IL-2 2.5 ng/mL) [20]	0
YT (IL-2 2.5 ng/mL) [27]	1.05
[14]	0.4
[17]	0
[18]	0
[21]	0
[24]	0
